The results in this text go back to the NIST ThermoML archive (doi:10.1021/je101151f).

Numbers after ± are expanded uncertainties.

For this data set the following is noted: Liquid; Manometric method.
Turning to `C=C(C)[C@@H]1CC=C(C)CC1` [(S)-1-methyl-4-(1-methylethenyl)cyclohexene], the Normal boiling temperature turned out to be 177.19 ± 0.36 °C.
Under `Cc1ccc(C(C)C)cc1` [1-(1-methylethyl)-4-methylbenzene] stands 176.24 ± 0.31 °C; under `C=C1CCC2CC1C2(C)C` (stereo not drawn) [β-pinene], 165.80 ± 0.31 °C.
